In this assay the test system is Tetrahymena thermophila cells. The experiment in a line: Oligo-cell experiments: cloning efficiency in synthetic nutrient medium. The class given is cell-based. The source says:
The invention was the result of a laboratory test program using in vivo cell signalling model. The application of a nutritionally complete synthetic (NCS) medium in an oligo-cell experimental research program in which cells demise (or eventually have a prolonged lag-phase) was used for gaining scientific information related to determining the effectiveness of pectins and pectin and extensin combinations as biochemical messengers. An additional control was supplemented with cephalin, that activates cells to multiplication. The effect of an activator added to the NCS medium is compared directly to the control that demises. Apparently, any compound or combination of compounds can be examined in light of the question whether it can activate a cell to survive and/or proliferate. From the beginning of the 1980's the effect of biochemical messengers has been examined with cells grown in an NCS medium free of proteins, lipids, and sugars. Signalling applies to unicellular and multicellular organisms, and the idea of NCS media is that a biochemical messenger can be tested for its biological effect on the cells to gain insight in cellular signalling mechanisms. Biochemical messengers are related to the four biological cornerstones of the eukaryotic cell: survival, proliferation, differentiation, and programmed cell death.
In oligo-cell experiments, different pectins and combinations of pectins and extensins were examined for their ability to activate Tetrahymena thermophila cells to survival and/or proliferation. The Tetrahymena cell has nutritional requirements similar to those of animals. They contain subcellular organelles such as mitochondria and peroxisomes, which are essential for the development of regulatory mechanisms in cellular metabolism. […]
Cloning efficiencies were determined from cell multiplications in a synthetic nutrient medium without and with supplements. […]

Consider cephalin, for which the Cloning efficiencies reads like this: (50 mg/L in synthetic nutrient medium, experiments with cell multiplication after 30 hours / total experiments, about two cells in two mL, first experiment) 15/15; (50 mg/L in synthetic nutrient medium, experiments with cell multiplication after 30 hours / total experiments, about two cells in two mL, second experiment (sugar beet fiber)) 15/15; (controls supplemented with cephalin, evaluated after 30 hours) 92%.

The values are drawn from patent publication US6794495B1, “Composition comprising extensin and, optionally, pectic polysaccharides” (New Nordic Danmark APS, priority 1998, dated 2004).
